Data as given in US4089893A, “2,2,2-Tris(hydroxymethyl)ethylphosponic acid and method for its preparation” (Borg-Warner Corporation, priority 1976, dated 1978).

Test: solubility
Assay type: physicochemical
Details: syrup product of Example 2

## O=P(O)(O)CC(CO)(CO)CO [Phosphonic Acid, 3-hydroxy-2,2-bis(hydroxymethyl)propylphosphonic acid]
  solubility: soluble in water and highly polar organic solvents
